{"source": "patent US9814236B2", "about": "“Agricultural or horticultural chemical, method of controlling plant diseases, and product for controlling plant diseases” (Kureha Corporation, priority 2013, dated 2017)", "format_in_all_cases": "cell-based", "key": {"[1]": {"system": "gray mold disease (Botrytis cinerea)", "assay": "In vitro antimicrobial activity test on PDA agar plates, 20° C., two days (Test Examples 3, 8)", "conditions": "Test Example 3"}, "[2]": {"system": "wheat leaf blight (Septoria tritici)", "assay": "In vitro antimicrobial activity test on PDA agar plates, 25° C., 14 days (Test Examples 4 to 7)", "experimental": "(§1) Additionally, in the above formula, R represents a fungal expansion suppression rate (%), dc represents the diameter of a colony on an untreated plate, and dt represents the diameter of a colony on an chemical-treated plate.\n(§2) Inhibition rate during mixed use (theoretical value)=α+((100−α)×β)/100, note that, in the formula above, α and β respectively represent the inhibition rates of the compounds during single use of the compounds.\nTesting and determination were performed in the same manner as in Test Example 4 except for using the thiophanate-methyl in place of the boscalid.\nTest and determination were performed in the same manner as in Test Example 4 except for using the chlorothalonil in place of the boscalid."}, "[3]": {"system": "gray mold disease (Botrytis cinerea)", "assay": "In vitro antimicrobial activity test on PDA agar plates, 20° C., two days (Test Examples 3, 8)", "conditions": "Test Example 8", "experimental": "as §1, §2\nTest and determination were performed in the same manner as in Test Example 3 except for using the penthiopyrad in place of the isopyrazam."}, "[4]": {"system": "wheat damping off (Gaeumannomyces graminis)", "assay": "In vitro antimicrobial activity test on PDA agar plates, 20° C., three days (Test Example 2)", "excerpt": "as §1, §2\nIn the present test example, the antimicrobial properties of a mixed formulation of compound (1) and bixafen on wheat damping off (Gaeumannomyces graminis) were tested.\nMeanwhile, wheat damping off was punched out from the periphery of a colony of wheat damping off using a cork borer having a diameter of 4 mm, and inoculated onto the PDA agar plates in which the chemical(s) was(were) mixed."}, "[5]": {"system": "wheat leaf blight (Septoria tritici)", "assay": "In vitro antimicrobial activity test on PDA agar plates, 20° C., three days (Test Example 1)", "experimental": "In the present test example, the antimicrobial properties of a mixed formulation of compound (1) and bixafen on wheat leaf blight (Septoria tritici) were tested.\nas §1, §2"}}, "note": "Read-outs that look alike come from different tables or passages of the source.", "data": [{"smiles": "CC(C)C1C2CCC1c1c(NC(=O)c3cn(C)nc3C(F)F)cccc12", "note": "(stereo not drawn) [Isopyrazam, isopyrazam]", "values": [{"measurement": "Fungal growth inhibition rate (%) Measured value", "setting": "[1]; Isopyrazam 0.0393 ppm alone", "result": 1, "unit": "%"}, {"measurement": "Fungal growth inhibition rate (%) Measured value", "setting": "[1]; Isopyrazam 0.1575 ppm alone", "result": 9, "unit": "%"}, {"measurement": "Fungal growth inhibition rate (%) Measured value", "setting": "[1]; Isopyrazam 0.63 ppm alone", "result": 23, "unit": "%"}, {"measurement": "Fungal growth inhibition rate (%) Measured value", "setting": "[1]; Isopyrazam 2.5 ppm alone", "result": 35, "unit": "%"}, {"measurement": "Fungal growth inhibition rate (%) Measured value", "setting": "[1]; Isopyrazam 10 ppm alone", "result": 69, "unit": "%"}]}, {"smiles": "COC(=O)NC(=S)Nc1ccccc1NC(=S)NC(=O)OC", "note": "[Thiophanate-methyl, thiophanate-methyl]", "values": [{"measurement": "inhibition at 0.01 ppm", "setting": "[2]; Zymoseptoria tritici, 4TO7, Test Example 5, Thiophanate-methyl 0.010 ppm alone, read-out: Fungal growth inhibition rate (%) Measured value", "result": 0, "unit": "%"}, {"measurement": "inhibition at 0.039 ppm", "setting": "[2]; Zymoseptoria tritici, 4TO7, Test Example 5, Thiophanate-methyl 0.039 ppm alone, read-out: Fungal growth inhibition rate (%) Measured value", "result": 0, "unit": "%"}, {"measurement": "inhibition at 0.156 ppm", "setting": "[2]; Zymoseptoria tritici, 4TO7, Test Example 5, Thiophanate-methyl 0.156 ppm alone, read-out: Fungal growth inhibition rate (%) Measured value", "result": 0, "unit": "%"}, {"measurement": "inhibition at 0.625 ppm", "setting": "[2]; Zymoseptoria tritici, 4TO7, Test Example 5, Thiophanate-methyl 0.625 ppm alone, read-out: Fungal growth inhibition rate (%) Measured value", "result": 76, "unit": "%"}, {"measurement": "inhibition at 2.5 ppm", "setting": "[2]; Zymoseptoria tritici, 4TO7, Test Example 5, Thiophanate-methyl 2.5 ppm alone, read-out: Fungal growth inhibition rate (%) Measured value", "result": 100, "unit": "%"}]}, {"smiles": "CC(C)CC(C)c1sccc1NC(=O)c1cn(C)nc1C(F)(F)F", "note": "(stereo not drawn) [Penthiopyrad, penthiopyrad]", "values": [{"measurement": "inhibition at 0.63 ppm", "setting": "[3]; Botrytis cinerea, Penthiopyrad 0.63 ppm alone, read-out: Fungal growth inhibition rate (%) Measured value", "result": 31, "unit": "%"}, {"measurement": "inhibition at 2.5 ppm", "setting": "[3]; Botrytis cinerea, Penthiopyrad 2.50 ppm alone, read-out: Fungal growth inhibition rate (%) Measured value", "result": 61, "unit": "%"}, {"measurement": "inhibition at 10 ppm", "setting": "[3]; Botrytis cinerea, Penthiopyrad 10.00 ppm alone, read-out: Fungal growth inhibition rate (%) Measured value", "result": 93, "unit": "%"}]}, {"smiles": "O=C(Nc1ccccc1-c1ccc(Cl)cc1)c1cccnc1Cl", "note": "[Boscalid, boscalid]", "values": [{"measurement": "inhibition at 0.0393 ppm", "setting": "[2]; Zymoseptoria tritici, 4TO7, Test Example 4, Boscalid 0.0393 ppm alone, read-out: Fungal growth inhibition rate (%) Measured value", "result": 0, "unit": "%"}, {"measurement": "inhibition at 0.1575 ppm", "setting": "[2]; Zymoseptoria tritici, 4TO7, Test Example 4, Boscalid 0.1575 ppm alone, read-out: Fungal growth inhibition rate (%) Measured value", "result": 0, "unit": "%"}, {"measurement": "inhibition at 0.63 ppm", "setting": "[2]; Zymoseptoria tritici, 4TO7, Test Example 4, Boscalid 0.63 ppm alone, read-out: Fungal growth inhibition rate (%) Measured value", "result": 31, "unit": "%"}, {"measurement": "inhibition at 2.5 ppm", "setting": "[2]; Zymoseptoria tritici, 4TO7, Test Example 4, Boscalid 2.5 ppm alone, read-out: Fungal growth inhibition rate (%) Measured value", "result": 49, "unit": "%"}, {"measurement": "inhibition at 10 ppm", "setting": "[2]; Zymoseptoria tritici, 4TO7, Test Example 4, Boscalid 10 ppm alone, read-out: Fungal growth inhibition rate (%) Measured value", "result": 100, "unit": "%"}]}, {"smiles": "COC(=O)C1(C)CCC(Cc2ccc(Cl)cc2)C1(O)Cn1cncn1", "note": "(stereo not drawn) [Compound (1), 3-(4-chlorobenzyl)-2-hydroxy-1-methyl-2-(1H-1,2,4-triazol-1-ylmethyl) cyclopentane carboxylic acid methyl]", "values": [{"measurement": "Fungal growth inhibition rate (%) Measured value", "setting": "[4]; Compound (1) 0.005 ppm alone", "result": 0, "unit": "%"}, {"measurement": "Fungal growth inhibition rate (%) Measured value", "setting": "[1]; Compound (1) 0.078 ppm alone", "result": 4, "unit": "%"}, {"measurement": "Fungal growth inhibition rate (%) Measured value", "setting": "[2]; Test Example 4, Compound (1) 0.02 ppm alone", "result": 0, "unit": "%"}, {"measurement": "Fungal growth inhibition rate (%) Measured value", "setting": "[2]; Test Example 5, Compound (1) 0.005 ppm alone", "result": 23, "unit": "%"}, {"measurement": "Fungal growth inhibition rate (%) Measured value", "setting": "[2]; Test Example 6, Compound (1) 0.005 ppm alone", "result": 81, "unit": "%"}, {"measurement": "Fungal growth inhibition rate (%) Measured value", "setting": "[2]; Test Example 7, Compound (1) 0.02 ppm alone", "result": 7, "unit": "%"}, {"measurement": "Fungal growth inhibition rate (%) Measured value", "setting": "[3]; Compound (1) 0.078 ppm alone", "result": 13, "unit": "%"}, {"measurement": "Fungal growth inhibition rate (%) Measured value", "setting": "[5]; Compound (1) 0.005 ppm alone", "result": 0, "unit": "%"}]}, {"smiles": "Cn1cc(C(=O)Nc2ccccc2-c2cc(F)c(F)c(F)c2)c(C(F)F)n1", "note": "[Fluxapyroxad, fluxapyroxad]", "values": [{"measurement": "Fungal growth inhibition rate (%) Measured value", "setting": "[2]; Test Example 7, Fluxapyroxad 0.04 ppm alone", "result": 11, "unit": "%"}, {"measurement": "Fungal growth inhibition rate (%) Measured value", "setting": "[2]; Test Example 7, Fluxapyroxad 0.16 ppm alone", "result": 34, "unit": "%"}, {"measurement": "Fungal growth inhibition rate (%) Measured value", "setting": "[2]; Test Example 7, Fluxapyroxad 0.63 ppm alone", "result": 74, "unit": "%"}]}, {"smiles": "Cn1cc(C(=O)Nc2ccc(F)cc2-c2ccc(Cl)c(Cl)c2)c(C(F)F)n1", "note": "[Bixafen, bixafen]", "values": [{"measurement": "Fungal growth inhibition rate (%) Measured value", "setting": "[4]; Bixafen 0.0393 ppm alone", "result": 0, "unit": "%"}, {"measurement": "Fungal growth inhibition rate (%) Measured value", "setting": "[4]; Bixafen 0.1575 ppm alone", "result": 3, "unit": "%"}, {"measurement": "Fungal growth inhibition rate (%) Measured value", "setting": "[4]; Bixafen 0.63 ppm alone", "result": 4, "unit": "%"}, {"measurement": "Fungal growth inhibition rate (%) Measured value", "setting": "[4]; Bixafen 2.5 ppm alone", "result": 29, "unit": "%"}, {"measurement": "Fungal growth inhibition rate (%) Measured value", "setting": "[5]; Bixafen 0.0393 ppm alone", "result": 0, "unit": "%"}, {"measurement": "Fungal growth inhibition rate (%) Measured value", "setting": "[5]; Bixafen 0.1575 ppm alone", "result": 6, "unit": "%"}, {"measurement": "Fungal growth inhibition rate (%) Measured value", "setting": "[5]; Bixafen 0.63 ppm alone", "result": 31, "unit": "%"}, {"measurement": "Fungal growth inhibition rate (%) Measured value", "setting": "[5]; Bixafen 2.5 ppm alone", "result": 54, "unit": "%"}]}, {"smiles": "N#Cc1c(Cl)c(Cl)c(Cl)c(C#N)c1Cl", "note": "[Chlorothalonil, chlorothalonil]", "values": [{"measurement": "inhibition at 0.01 ppm", "setting": "[2]; Zymoseptoria tritici, 4TO7, Test Example 6, Chlorothalonil 0.010 ppm alone, read-out: Fungal growth inhibition rate (%) Measured value", "result": 0, "unit": "%"}, {"measurement": "inhibition at 0.039 ppm", "setting": "[2]; Zymoseptoria tritici, 4TO7, Test Example 6, Chlorothalonil 0.039 ppm alone, read-out: Fungal growth inhibition rate (%) Measured value", "result": 0, "unit": "%"}, {"measurement": "inhibition at 0.156 ppm", "setting": "[2]; Zymoseptoria tritici, 4TO7, Test Example 6, Chlorothalonil 0.156 ppm alone, read-out: Fungal growth inhibition rate (%) Measured value", "result": 0, "unit": "%"}, {"measurement": "inhibition at 0.625 ppm", "setting": "[2]; Zymoseptoria tritici, 4TO7, Test Example 6, Chlorothalonil 0.625 ppm alone, read-out: Fungal growth inhibition rate (%) Measured value", "result": 3, "unit": "%"}, {"measurement": "inhibition at 2.5 ppm", "setting": "[2]; Zymoseptoria tritici, 4TO7, Test Example 6, Chlorothalonil 2.5 ppm alone, read-out: Fungal growth inhibition rate (%) Measured value", "result": 30, "unit": "%"}]}]}
